System: 5×FAD mouse
Assay: Morris water maze (MWM) task in 5×FAD mice
Format: in vivo
Description: A Morris water maze (MWM) task was conducted to examine an effect on improving cognitive function depending on the administration of the complex composition of the present invention. […] The above markers remained unchanged throughout the test period. The escape platform was placed 1 cm above the water surface or 0.5 to 1.5 cm below the water surface according to the purpose of the experiment. When placed under the water surface, the water was made opaque with white water-based paint so that the escape platform was not visible to the eye. The Morris water maze was divided into four quadrants, i.e., northeast (NE), northwest (NW), southeast (SE) and southwest (SW), wherein the escape platform was placed in the center of the southwest quadrant, and the mouse started randomly from one of the others.
The escape platform was made visible on Learning DAY 0. Each mouse was trained to recognize that it was possible to escape when they swam toward the escape platform and landed thereon. On DAY 1-4, the escape platform was hidden by being placed under the water, and then the mice learned the position of the escape platform. […] The mice were then immediately transferred to the breeding cage. On DAY 5, the probe test was performed without the escape platform. The probe test was performed by placing the mouse in the farthest part of the quadrant where the escape platform was placed during the training day, and 60 seconds was set as the time limit. The indexes of cognitive function include the escape latency which is the time required for the mouse to find the escape platform and the time spent in the quadrant where the escape platform was placed. It was judged that the shorter the time it takes to escape (FIG. 2A) and the longer the mouse stays in the quadrant where the escape platform was placed (FIG. 2B), the better the memory and learning ability of the mouse.
Then, each group was subjected to oral administration for 4 weeks to perform the experiment.

COc1cc2c(cc1OC)C(=O)C(CC1CCN(Cc3ccccc3)CC1)C2 (stereo not drawn) [Donepezil, donepezil]
escape latency reduced by, based on the mutant mouse vehicle group (2 mg/kg of donepezil alone, reduction stated in text): 14.2%
Escape latency (Increase or decrease compared to mutated mouse vehicle group) (Mutated mouse, Donepezil 2 mg/kg oral, 4 weeks, DAY 4): −14.2%
time spent in the target quadrant (Increase or decrease compared to mutated mouse vehicle group) (Mutated mouse, donepezil 2 mg/kg oral, 4 weeks, probe test DAY 5): 73.20%

From patent publication US20230398106A1 (NEURORIVE INC, priority 2020, published 2023)
